Measurements published in patent publication US5578324A, “Peptide proteinaceous drug nasal powder composition” (Teijin Limited, priority 1993, dated 1996).
Counter-ions that a name gives are not always drawn. Where a SMILES comes first, the peptide text is derived from it. [ ]: non-standard residue; d: D form. The star is where a group is joined. Sta = CC(C)C[C@H](N)[C@@H](O)CC(=O)O; Isovaleryl = CC(C)CC(=O)*

Tests used:
[1] = system: Human Nasal Mucosal Homogenate; experiment: Inhibitory effect on degradation of peptide proteinaceous drug in human nasal mucosal homogenate; assay type: biochemical; set-up: concentration or dose not given beside the values; conditions: 37° C., HPLC; for Inhibitor (%) ACTH: degradation of adrenocorticotropic hormone (ACTH); for Inhibitor (%) CGRP: degradation of calcitonin gene related peptide (CGRP); for Inhibitor (%) GLU: degradation of glucagon (GLU); for Inhibitor (%) GHRH: degradation of growth hormone releasing hormone (GHRH); for Inhibitor (%) INS: degradation of insulin (INS); for Inhibitor (%) LHRH: degradation of luteinizing hormone releasing hormone (LHRH); for Inhibitor (%) PTH: degradation of parathyroid hormone (PTH); for Inhibitor (%) PDGF: degradation of platelet-derived growth factor (PDGF); for Inhibitor (%) SCT: degradation of salmon calcitonin (SCT); for Inhibitor (%) GIF: degradation of somatostatin (GIF); for Inhibitor (%) S.p: degradation of substance P (S.p)
Protocol: A homogenate solution was prepared from human nasal mucosa to give 1 mg/ml of protein. […] The amounts of the peptide proteinaceous drug not yet cleaved after a predetermined time were measured by HPLC to find the amounts of decomposition. The inhibition rates were calculated by the following formula.
Inhibition rate (%)=(A-B)/A×100
A: Amount of peptide proteinaceous drug cleaved when enzyme inhibitor or absorption accelerant of present invention is not added to homogenate
B: Amount of peptide proteinaceous drug cleaved when enzyme inhibitor or absorption accelerant of present invention is added to homogenate

trypsin = target: T1, trypsin (Bos taurus, UniProt P00760); experiment: Trypsin inhibiting activity; assay type: biochemical
T1 construct: gene PRSS1
T1 sequence (P00760 24-246): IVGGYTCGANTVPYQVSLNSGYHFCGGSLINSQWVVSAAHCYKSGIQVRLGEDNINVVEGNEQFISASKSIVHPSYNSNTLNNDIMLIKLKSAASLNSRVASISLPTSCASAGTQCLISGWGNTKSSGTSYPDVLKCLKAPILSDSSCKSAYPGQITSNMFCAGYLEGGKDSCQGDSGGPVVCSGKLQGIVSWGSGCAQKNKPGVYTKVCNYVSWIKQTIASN

[2] = Promotion of nasal absorption of peptide proteinaceous drug; conditions: in vivo
[3] = system: Human Nasal Mucosal Homogenate; experiment: Activity of protease in human nasal mucosal homogenate (cleavage of synthesized substrates); assay type: biochemical; conditions: substrate 0.1 mM, 37° C., amount of substrate cleaved by HPLC
Protocol: A homogenate solution was prepared from human nasal mucosa to give 1 mg/ml of protein. Next, synthesis substrates corresponding to the various proteases shown in Table 1 were added to 0.5 ml portions of the homogenate solution to give 0.1 mM concentrations. The results were incubated at 37° C. The amounts of the substrates remaining after a predetermined time were measured by HPLC to find the amounts of substrates cleaved and find the activity of the various proteases.

Molecule | Inhibitor (%) ACTH [1] [%] | Inhibitor (%) CGRP [1] [%] | Inhibitor (%) GLU [1] [%] | Inhibitor (%) GHRH [1] [%] | Inhibitor (%) INS [1] [%] | Inhibitor (%) LHRH [1] [%] | Inhibitor (%) PTH [1] [%] | Inhibitor (%) PDGF [1] [%] | Inhibitor (%) SCT [1] [%] | Inhibitor (%) GIF [1] [%] | Inhibitor (%) S.p [1] [%] | trypsin inhibiting activity (trypsin) | effect of promoting nasal absorption [2] | Activity (nM/h/mg protein) [3] [nM/h/mg protein]
CC(C)C[C@H](NC(=O)[C@@H](NC(=O)N[C@@H](Cc1ccccc1)C(=O)O)[C@@H]1CCN=C(N)N1)C(=O)N[C@H](C=O)Cc1ccccc1 [Chymostatin] | 12 | 23 | 35 | 25 | 22 | 16 | 15 | 10 | 38 | 25 | 15 |  |  | 
NCc1ccccc1 [Benzylamine] | 80 | 76 | 48 | 68 | 68 | 49 | 80 | 52 | 70 | 78 | 54 |  |  | 
CC(C)CC(=O)N[C@H](C(=O)N[C@H](C(=O)N[C@@H](CC(C)C)[C@@H](O)CC(=O)N[C@@H](C)C(=O)N[C@@H](CC(C)C)[C@@H](O)CC(=O)O)C(C)C)C(C)C [Pepstatin] (Isovaleryl-VV[Sta]A[Sta]-OH) | 4 | 10 | 8 | 0 | 15 | 0 | 10 | 0 | 10 | 0 | 0 |  |  | 
NCc1ccc(C(=O)O)cc1 [p-Aminomethyl benzoic acid] | 84 | 72 | 60 | 70 | 74 | 54 | 80 | 65 | 76 | 85 | 58 |  |  | 
NC[C@H]1CC[C@H](C(=O)c2ccc(CCC(=O)O)cc2)CC1 [Rotraxate hydrochloride, 3-((p-(trans-4-aminomethylcyclohexylcarbonyl)phenyl)) propionic acid] | 74 | 75 | 62 | 75 | 84 | 56 | 76 | 59 | 80 | 86 | 53 | no trypsin inhibiting activity |  | 
NCCc1ccc(O)c(O)c1 [Dopamine hydrochloride, 4-(2-aminoethyl)-1,2 benzenediol] | 77 | 72 | 50 | 50 | 52 | 29 | 70 | 55 | 64 | 72 | 60 | no trypsin inhibiting activity |  | 
Cc1ccc(S(=O)(=O)N[C@@H](Cc2ccccc2)C(=O)CCl)cc1 [TPCK] | 8 | 0 | 5 | 0 | 7 | 5 | 10 | 3 | 0 | 11 | 10 |  |  | 
NCc1ccc(S(N)(=O)=O)cc1 [Mafenide acetate, 4-(aminomethyl) benzenesulfamine] | 78 | 70 | 56 | 66 | 52 | 32 | 75 | 59 | 67 | 74 | 55 | no trypsin inhibiting activity |  | 
O=C(O)CNC(=O)C(CS)Cc1ccccc1 (stereo not shown) [Thiorphan] | 0 | 0 | 0 | 0 | 0 | 0 | 0 | 0 | 0 |  | 0 |  |  | 
NC[C@H]1CC[C@H](C(=O)O)CC1 [Tranexamic acid, trans-4-(aminomethyl) cyclohexane carboxylic acid] | 80 | 75 | 68 | 75 | 79 | 58 | 78 | 68 | 73 | 80 | 65 | no trypsin inhibiting activity |  | 
NCCCCCC(=O)O [ε-ACA, ε-Amino caproic acid] | 0 | 0 | 0 | 0 | 0 | 0 | 0 | 0 | 0 | 0 | 0 |  | no effect of promoting nasal absorption was observed | 
Bz--Arg--MCA |  |  |  |  |  |  |  |  |  |  |  |  |  | 1
NC[C@H]1CC[C@H](C(=O)Oc2ccc(CCC(=O)O)cc2)CC1 [Cetraxate hydrochloride, trans-(4-aminomethyl) cyclohexane carboxylic acid p-(2-carboxyethyl)phenyl ester] | 70 | 70 | 54 | 70 | 80 | 48 | 75 | 58 |  | 80 | 54 | no trypsin inhibiting activity |  | 
CCOC(=O)c1ccc(OC(=O)CCCCCNC(=N)N)cc1 [Gabexate] | 48 | 49 | 56 | 40 | 46 | 27 | 44 | 43 | 53 | 56 | 40 |  |  | 
